Test: Fluorescein release from hydrogels in phosphate buffer, monitored by HPLC
Assay type: physicochemical
Details: covalently grafted in PEG hydrogel, plateau after 72 hours
Description: FIG. 2: this figure concerns tests to quantify the release of fluorescein from various hydrogels according to the invention. The hydrogels grafted with fluorescein by covalent bond show much lower release rates than the hydrogel containing fluorescein simply enclosed with no covalent bond.
In order to show the covalent incorporation of a (bio)molecule into the gel and the absence of release over time of the grafted molecules, fluorescein derivatives were selected to be chemically linked to the hydrogels in accordance with the present invention (see FIG. 2 for the exact formulae). Thus, if there were to be a release of the grafted molecules, the use of fluorescein would make it possible to easily detect it.
Fluorescein isothiocyanate (FITC) was used to prepare two types of fluorescein derivatives giving covalent bonds (triethoxysilane and dimethylhydroxysilane), as well as a non-silylated molecule used as control. Each fluorescein derivative was dissolved at a concentration of 5.2 mM in a solution of bi-silylated hybrid PEG, itself at a concentration of 10% by mass relative to the mass of DPBS used as solvent. Sodium fluoride was added, and the solutions were homogenized. Fluorescent hybrid hydrogels were obtained at 37° C. in 30 minutes. The various hydrogels were placed in phosphate buffer (10 mL) and fluorescein release was monitored by HPLC. […]

C[Si](C)(O)CCCNC(=O)NCCCNC(=S)Nc1ccc(-c2c3ccc(=O)cc-3oc3cc(O)ccc23)c(C(=O)O)c1 [dimethythydroxyfluorescein, Hydroxydimethylsilyl Fluorescein]
maximum release (relative to the total amount of fluorescein introduced): 20%

Reference: patent US20210393855A1, “NEW HYDROGELS HAVING A SILYLATED STRUCTURE, AND METHOD FOR OBTAINING SAME” (Universite de Montpellier, priority 2015, published 2021)
